Measurements as given in US20260317320A1, “C5AR1 ANTAGONISTS AND USES THEREOF” (Vanqua Bio, Inc., priority 2022, published 2026).

Each molecule was assayed against T1, complement C5a receptor 1 (C5aR1) (Homo sapiens, UniProt P21730) (assay: β-arrestin recruitment via C5aR1 activation in live CHO-K1 cells (PathHunter), antagonist mode). Conditions: not given.
T1 construct: β-galactosidase fragment (PathHunter enzyme complementation); host or cells: CHO-K1 (PathHunter CHO-K1 C5aR1 β-arrestin cell line)
T1 sequence (P21730 1-350): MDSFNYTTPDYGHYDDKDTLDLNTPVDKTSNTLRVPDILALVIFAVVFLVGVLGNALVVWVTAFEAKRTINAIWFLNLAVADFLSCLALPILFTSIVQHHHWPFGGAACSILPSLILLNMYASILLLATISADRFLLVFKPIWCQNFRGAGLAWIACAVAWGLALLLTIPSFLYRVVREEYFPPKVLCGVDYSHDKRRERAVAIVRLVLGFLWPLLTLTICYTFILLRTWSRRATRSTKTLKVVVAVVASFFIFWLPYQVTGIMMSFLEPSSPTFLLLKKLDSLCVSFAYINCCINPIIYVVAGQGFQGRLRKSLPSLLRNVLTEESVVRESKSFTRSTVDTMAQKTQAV
Type: cell-based
Procedure: Exemplary compounds were evaluated for classical GPCR β-arrestin recruitment via complement C5a receptor 1 (C5aR1) activation in live CHO-K1 cells. This cell line expresses two fragments of the […] protein coupled to β-arrestin and C5aR1. Complementation of the two fragments allows for the assessment of both C5aR1 agonism and antagonism. Recombinant hC5a (EC90) was used as the competing natural agonist against disclosed compounds (more information on the expanded protocol and cell line can be found on the manufacturer's website: PathHunter® CHO-K1 C5aR1 β-arrestin cell line, DiscoverX, Catalog No. 93-0557C2). […] IC50 ranges: A: IC50≤500 nM; B: 500 nM<IC50≤5 uM; C: 5 uM<IC50≤100 uM; D: IC50>100 uM.

| IC50 | SMILES |
| --- | --- |
| 500 to 5000 nM | Cc1ccccc1N1CCC(c2cc3nccnc3n(Cc3nccnc3C)c2=O)CC1 [compound 109, 5-((3-Methylpyrazin-2-yl)methyl)-7-(1-(o-tolyl)piperidin-4-yl)pyrido[2,3-b]pyrazin-6(5H)-one] |

Same assay, conditions: antagonist mode; recombinant hC5a (EC90) as competing natural agonist; live CHO-K1 cells; read-out: [Antagonist] B-arrestin2 recruitment: Average IC50

| SMILES | IC50 |
| --- | --- |
| Cc1cccc(F)c1N1CCN(c2cc3nccnc3n(Cc3ncccc3C(F)(F)F)c2=O)CC1 [compound 96, 7-(4-(2-Fluoro-6-methylphenyl)piperazin-1-yl)-5-((3-(trifluoromethyl)pyridin-2-yl)methyl)pyrido[2,3-b]pyrazin-6(5H)-one] | < 500 nM |
| Cc1c(C2CCN(c3ccccc3C(F)(F)F)CC2)c(=O)n(Cc2ncccc2F)c2nccnc12 [compound 83, 5-((3-Fluoropyridin-2-yl)methyl)-8-methyl-7-(1-(2-(trifluoromethyl)phenyl)piperidin-4-yl)pyrido[2,3-b]pyrazin-6(5H)-one] | < 500 nM |
| Cc1ncc2cc(C3CCN(c4c(C)cccc4F)CC3)c(=O)n(Cc3ncccc3OC(F)(F)F)c2n1 [compound 102, 6-(1-(2-Fluoro-6-methylphenyl)piperidin-4-yl)-2-methyl-8-((3-(trifluoromethoxy)pyridin-2-yl)methyl)pyrido[2,3-d]pyrimidin-7(8H)-one] | < 500 nM |
| Cc1cnc2cc(C3CCN(c4c(C)cccc4F)CC3)c(=O)n(Cc3ccccc3OC(F)F)c2n1 [compound 74, 5-(2-(Difluoromethoxy)benzyl)-7-(1-(2-fluoro-6-methylphenyl)piperidin-4-yl)-3-methylpyrido[2,3-b]pyrazin-6(5H)-one] | 500 to 5000 nM |
| Cc1cccc(F)c1N1CCC(c2cc3ncncc3n(Cc3ncccc3C(F)(F)F)c2=O)CC1 [compound 84, 7-(1-(2-Fluoro-6-methylphenyl)piperidin-4-yl)-5-((3-(trifluoromethyl)pyridin-2-yl)methyl)pyrido[3,2-d]pyrimidin-6(5H)-one] | > 100000 nM |
| Cc1cccc(F)c1N1CCN(c2c(C)c3nccnc3n(Cc3nccnc3C(F)(F)F)c2=O)CC1 [compound 97, 7-(4-(2-Fluoro-6-methylphenyl)piperazin-1-yl)-8-methyl-5-((3-(trifluoromethyl)pyrazin-2-yl)methyl)pyrido[2,3-b]pyrazin-6(5H)-one] | 500 to 5000 nM |
| Cc1cccc(F)c1N1CCC(c2cc3nccnc3n(Cc3ncccc3OC(F)F)c2=O)CC1 [compound 98, 5-((3-(Difluoromethoxy)pyridin-2-yl)methyl)-7-(1-(2-fluoro-6-methylphenyl)piperidin-4-yl)pyrido[2,3-b]pyrazin-6(5H)-one] | < 500 nM |
| Cc1nccnc1Cn1c(=O)c(C2CCN(c3ccccc3OC(F)F)CC2)cc2nccnc21 [compound 111, 7-(1-(2-(Difluoromethoxy)phenyl)piperidin-4-yl)-5-((3-methylpyrazin-2-yl)methyl)pyrido[2,3-b]pyrazin-6(5H)-one] | 5000 to 100000 nM |
| Cc1cnc2cc(N3CCN(c4c(C)cccc4F)CC3)c(=O)n(Cc3nccnc3C)c2n1 [compound 104, 7-(4-(2-Fluoro-6-methylphenyl)piperazin-1-yl)-3-methyl-5-((3-methylpyrazin-2-yl)methyl)pyrido[2,3-b]pyrazin-6(5H)-one] | 500 to 5000 nM |
| Cc1nccnc1Cn1c(=O)c(C2CCN(c3ccccc3OC(F)(F)F)CC2)cc2nccnc21 [compound 108, 5-((3-Methylpyrazin-2-yl)methyl)-7-(1-(2-(trifluoromethoxy)phenyl)piperidin-4-yl)pyrido[2,3-b]pyrazin-6(5H)-one] | 500 to 5000 nM |
| Cc1cccc(F)c1N1CCC(c2cc3nccnc3n(Cc3nccnc3C(F)F)c2=O)CC1 [compound 122, 5-((3-(Difluoromethyl)pyrazin-2-yl)methyl)-7-(1-(2-fluoro-6-methylphenyl)piperidin-4-yl)pyrido[2,3-b]pyrazin-6(5H)-one] | < 500 nM |
| Cc1cnc2c(C)c(C3CCN(c4c(C)cccc4F)CC3)c(=O)n(Cc3nccnc3C)c2n1 [compound 103, 7-(1-(2-Fluoro-6-methylphenyl)piperidin-4-yl)-3,8-dimethyl-5-((3-methylpyrazin-2-yl)methyl)pyrido[2,3-b]pyrazin-6(5H)-one] | 500 to 5000 nM |
| Cc1ncc2cc(C3CCN(c4c(C)cccc4F)CC3)c(=O)n(Cc3nccnc3C)c2n1 [compound 107, 6-(1-(2-Fluoro-6-methylphenyl)piperidin-4-yl)-2-methyl-8-((3-methylpyrazin-2-yl)methyl)pyrido[2,3-d]pyrimidin-7(8H)-one] | 500 to 5000 nM |
| Cc1c(C2CCN(c3ccccc3C(F)(F)F)CC2)c(=O)n(Cc2nccnc2F)c2nccnc12 [compound 77, 5-((3-Fluoropyrazin-2-yl)methyl)-8-methyl-7-(1-(2-(trifluoromethyl)phenyl)piperidin-4-yl)pyrido[2,3-b]pyrazin-6(5H)-one] | 500 to 5000 nM |
| Cc1cnc2cc(C3CCN(c4c(C)cccc4F)CC3)c(=O)n(Cc3ncccc3C(F)(F)F)c2c1 [compound 90, 3-(1-(2-Fluoro-6-methylphenyl)piperidin-4-yl)-7-methyl-1-((3-(trifluoromethyl)pyridin-2-yl)methyl)-1,5-naphthyridin-2(1H)-one] | 5000 to 100000 nM |
| Cc1ccc2cc(C3CCN(c4c(C)cccc4F)CC3)c(=O)n(Cc3ncccc3C(F)(F)F)c2n1 [compound 94, 3-(1-(2-Fluoro-6-methylphenyl)piperidin-4-yl)-7-methyl-1-((3-(trifluoromethyl)pyridin-2-yl)methyl)-1,8-naphthyridin-2(1H)-one] | < 500 nM |
| Cc1ncc2cc(C3CCN(c4c(C)cccc4F)CC3)c(=O)n(Cc3ncccc3C(F)(F)F)c2n1 [compound 81, 6-(1-(2-fluoro-6-methylphenyl)piperidin-4-yl)-2-methyl-8-((3-(trifluoromethyl)pyridin-2-yl)methyl)pyrido[2,3-d]pyrimidin-7(8H)-one] | < 500 nM |

Results, then the molecule that gave them:

| IC50 | SMILES |
| --- | --- |
| 500 to 5000 nM | Cc1cnc2cc(N3CCC(c4c(C)cccc4F)CC3)c(=O)n(Cc3nccnc3C(F)(F)F)c2n1 [compound 95, 7-(4-(2-Fluoro-6-methylphenyl)piperidin-1-yl)-3-methyl-5-((3-(trifluoromethyl)pyrazin-2-yl)methyl)pyrido[2,3-b]pyrazin-6(5H)-one] |
| > 100000 nM | Cc1cnc2cc(C3CCN(c4ccnnc4C)CC3)c(=O)n(Cc3ncccc3C(F)(F)F)c2n1 [compound 113, 3-Methyl-7-(1-(3-methylpyridazin-4-yl)piperidin-4-yl)-5-((3-(trifluoromethyl)pyridin-2-yl)methyl)pyrido[2,3-b]pyrazin-6(5H)-one] |
| 500 to 5000 nM | Cc1cccc(F)c1C1CCN(c2cc3nccnc3n(Cc3ncccc3C(F)(F)F)c2=O)CC1 [compound 91, 7-(4-(2-fluoro-6-methylphenyl)piperidin-1-yl)-5-((3-(trifluoromethyl)pyridin-2-yl)methyl) pyrido[2,3-b]pyrazin-6(5H)-one] |
| < 500 nM | Cc1cnc2cc([C@H]3CC[C@H](c4c(C)cccc4F)CC3)c(=O)n(Cc3ncccc3C(F)(F)F)c2n1 [121a, 7-(trans-4-(2-Fluoro-6-methylphenyl)cyclohexyl)-3-methyl-5-((3-(trifluoromethyl)pyridin-2-yl)methyl)pyrido[2,3-b]pyrazin-6(5H)-one] |
| 5000 to 100000 nM | Cc1cnc2cc(C3CCN(c4cncnc4C)CC3)c(=O)n(Cc3ncccc3C(F)(F)F)c2n1 [compound 114, 3-Methyl-7-(1-(4-methylpyrimidin-5-yl)piperidin-4-yl)-5-((3-(trifluoromethyl)pyridin-2-yl)methyl)pyrido[2,3-b]pyrazin-6(5H)-one] |
| 500 to 5000 nM | Cc1cnc2c(C)c(C3CCN(c4c(C)cccc4F)CC3)c(=O)n(Cc3ncccc3C(F)(F)F)c2n1 [compound 75, 7-(1-(2-Fluoro-6-methylphenyl)piperidin-4-yl)-3,8-dimethyl-5-((3-(trifluoromethyl)pyridin-2-yl)methyl)pyrido[2,3-b]pyrazin-6(5H)-one] |
| 500 to 5000 nM | Cc1cnc2cc(N3CCC(c4c(C)cccc4F)CC3)c(=O)n(Cc3ncccc3C(F)(F)F)c2n1 [compound 101, 7-(4-(2-Fluoro-6-methylphenyl)piperidin-1-yl)-3-methyl-5-((3-(trifluoromethyl)pyridin-2-yl)methyl)pyrido[2,3-b]pyrazin-6(5H)-one] |
| < 500 nM | Cc1cnc2cc([C@H]3CC[C@H](c4c(C)cccc4F)CC3)c(=O)n(Cc3nccnc3C(F)(F)F)c2n1 [99b, 7-(trans-4-(2-Fluoro-6-methylphenyl)cyclohexyl)-3-methyl-5-((3-(trifluoromethyl)pyrazin-2-yl)methyl)pyrido[2,3-b]pyrazin-6(5H)-one] |
| < 500 nM | Cc1cnc2cc(N3CCN(c4c(C)cccc4F)CC3)c(=O)n(Cc3nccnc3C(F)(F)F)c2n1 [compound 92, 7-(4-(2-Fluoro-6-methylphenyl)piperazin-1-yl)-3-methyl-5-((3-(trifluoromethyl)pyrazin-2-yl)methyl)pyrido[2,3-b]pyrazin-6(5H)-one] |
| > 100000 nM | Cc1cccc(F)c1N1CCC(c2cc3ncncc3n(Cc3nccnc3C(F)(F)F)c2=O)CC1 [compound 82, 7-(1-(2-Fluoro-6-methylphenyl)piperidin-4-yl)-5-((3-(trifluoromethyl)pyrazin-2-yl)methyl)pyrido[3,2-d]pyrimidin-6(5H)-one] |
